# Measured values from paper PMC7610864, “The Roles of Type 2 Cytotoxic T Cells in Inflammation, Tissue Remodeling, and Prostaglandin (PG) D2 Production Are Attenuated by PGD2 Receptor 2 Antagonism” (The Journal of Immunology Author Choice, 2021).
# Molecular target: T1, PGD2 receptor 2 (DP2) (Homo sapiens, UniProt Q9Y5Y4)
# T1 construct: gene PTGDR2
# T1 sequence (Q9Y5Y4 1-395): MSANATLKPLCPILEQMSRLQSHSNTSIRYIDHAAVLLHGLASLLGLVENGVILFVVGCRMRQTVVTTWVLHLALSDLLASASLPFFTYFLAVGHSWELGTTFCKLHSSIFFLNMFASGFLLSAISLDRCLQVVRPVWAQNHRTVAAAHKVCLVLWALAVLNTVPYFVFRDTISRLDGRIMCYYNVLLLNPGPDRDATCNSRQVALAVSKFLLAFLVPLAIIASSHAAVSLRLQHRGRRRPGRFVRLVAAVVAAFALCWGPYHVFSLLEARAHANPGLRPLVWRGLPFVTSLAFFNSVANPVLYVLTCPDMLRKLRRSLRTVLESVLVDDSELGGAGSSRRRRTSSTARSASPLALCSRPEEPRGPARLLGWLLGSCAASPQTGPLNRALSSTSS
compound,measurement,value
Cc1c(CC(=O)O)c2cccnc2n1Cc1ccc(S(C)(=O)=O)cc1C(F)(F)F [fevipiprant],IC50,3.5 ± 3.6 nM
